From US6521405B1, “Cell-free replication system and uses thereof” (Cancer Research Campaign Technology Limited, priority 1997, dated 2003)

Tested on: G1 NIH 3T3 nuclei
Test: Cell-free DNA replication assay: G1 nuclei in HeLa S phase cytosol, biotin-dUTP incorporation, percentage of nuclei replicating (staining yellow)
Format: biochemical, mouse
Details: about 50% yellow staining nuclei without inhibitor
Experimental: Nuclear templates were prepared by Dounce homogenisation as described previously, but from NIH 3T3 cells. G0, quiescent, cells were prepared by allowing NIH 3T3 cells to proliferate until they reached confluence and arrested their proliferation. They were released from quiescence by trypsinization and replating at ¼ the cell density. Cells were harvested as described previously (Krude et al., 1997) at measured times after release from quiescence. The 3T3 cells treated this way pass through G1 and begin to enter S phase synchronously about 21 hrs later. Nuclei and cytosolic extract were produced by hypotonically swelling the cells, scrape harvesting and Dounce-homogenizing. […]
In vitro replication assays were performed in 50 μl reactions in 1.5 ml polypropylene tubes (Sarstedt or Eppendorf). […] Biotin-dUTP incorporation was detected by staining with fluorescein-streptavidin, whilst total DNA was visualized by propidium iodide. […] The percentage of nuclei replicating were calculated from many prints of confocal images. […]
The competence of G1 NIH 3T3 nuclei to replicate was determined by repeating the collection of G1 nuclei at different times following release from G0 arrest and incubating the nuclei with S phase cytosol in accordance with the procedures of Example 1. […]

With `CC[C@H](CO)Nc1nc(NCc2ccccc2)c2ncn(C(C)C)c2n1` [roscovitin] the “decrease of yellow staining nuclei” value (1 μM) was roughly 5 fold and the “decrease of yellow staining nuclei” value (1 mM) was roughly 5 fold.
